Our source for the inhibition values is ChEMBL document CHEMBL2177099, “Discovery of 1-[4-(N-benzylamino)phenyl]-3-phenylurea derivatives as non-peptidic selective SUMO-sentrin specific protease (SENP)1 inhibitors” (Bioorg Med Chem Lett, 2012).

SMILES strings stand for the structures. Active and inactive are the calls of the source. The rule behind the calls is not given here.

Assay [1] has as its system HeLa. Description: Inhibition of hypoxia-induced HIF1alpha accumulation in human HeLa cells after 6 hrs by Western blot analysis. The assay is classed as functional, cell-based.
The subject of assay [2] is HeLa. The note with it: Homo sapiens, 3 uM.
Description: Inhibition of hypoxia-induced HIF1alpha accumulation in human HeLa cells at 3 uM after 6 hrs by Western blot analysis
For assay [3], the target named is T1, Thermolysin (Bacillus thermoproteolyticus) (UniProt P00800).
T1 sequence (whole entry): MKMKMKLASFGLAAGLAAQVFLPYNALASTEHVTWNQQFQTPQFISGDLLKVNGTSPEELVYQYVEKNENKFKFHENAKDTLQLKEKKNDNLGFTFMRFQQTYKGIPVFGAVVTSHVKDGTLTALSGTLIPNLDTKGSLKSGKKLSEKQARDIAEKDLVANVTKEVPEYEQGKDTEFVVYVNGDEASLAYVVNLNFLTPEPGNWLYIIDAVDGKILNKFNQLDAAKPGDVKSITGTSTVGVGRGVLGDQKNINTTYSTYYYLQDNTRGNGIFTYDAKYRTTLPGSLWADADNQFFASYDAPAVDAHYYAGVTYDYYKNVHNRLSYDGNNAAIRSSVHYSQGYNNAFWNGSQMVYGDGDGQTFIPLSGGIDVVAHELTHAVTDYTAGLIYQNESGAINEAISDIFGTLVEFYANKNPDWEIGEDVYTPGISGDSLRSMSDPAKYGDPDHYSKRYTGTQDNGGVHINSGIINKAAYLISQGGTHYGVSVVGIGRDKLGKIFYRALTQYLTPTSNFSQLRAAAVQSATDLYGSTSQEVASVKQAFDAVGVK
Description: Inhibition of Bacillus thermoproteolyticus rokko thermolysin using FITC-Casein substrate at 10 to 100 uM by fluorescence assay.

The species entered for assay [4] is Bos taurus. Description: Inhibition of bovine pancreatic chymotrypsin using FITC-Casein substrate at 10 to 100 uM by fluorescence assay.
The species named for assay [5] is Bos taurus. Description: Inhibition of bovine pancreatic trypsin using FITC-Casein substrate at 10 to 100 uM by fluorescence assay.
The target of assay [6] is T2, Sentrin-specific protease 2 (Homo sapiens) (UniProt Q9HC62).
T2 sequence (whole entry): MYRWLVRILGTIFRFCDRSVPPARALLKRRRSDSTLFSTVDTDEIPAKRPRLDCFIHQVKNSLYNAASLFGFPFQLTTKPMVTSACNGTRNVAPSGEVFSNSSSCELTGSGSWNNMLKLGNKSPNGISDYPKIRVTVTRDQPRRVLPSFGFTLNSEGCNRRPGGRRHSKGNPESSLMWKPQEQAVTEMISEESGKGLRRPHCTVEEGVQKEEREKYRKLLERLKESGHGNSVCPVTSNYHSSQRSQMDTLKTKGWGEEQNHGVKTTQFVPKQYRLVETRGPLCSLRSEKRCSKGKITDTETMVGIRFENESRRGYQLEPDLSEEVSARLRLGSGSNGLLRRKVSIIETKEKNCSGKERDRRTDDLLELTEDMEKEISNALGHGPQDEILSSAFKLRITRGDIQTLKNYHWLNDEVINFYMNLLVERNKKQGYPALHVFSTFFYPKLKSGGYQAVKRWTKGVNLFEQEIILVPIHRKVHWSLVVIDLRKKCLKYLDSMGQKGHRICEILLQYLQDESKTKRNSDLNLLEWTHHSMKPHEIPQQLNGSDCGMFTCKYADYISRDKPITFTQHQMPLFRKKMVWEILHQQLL
Description: Inhibition of recombinant human SENP2 catalytic domain assessed as release of fluorescent AMC from SUMO-1-AMC preincubated at 10 to 100 uM for 10 mins before substrate addition by fluorescence assay.

Consider `COC(=O)c1cccc(CNc2ccc(N(C)C(=O)Nc3ccccc3)cc2)c1`, for which the inhibition result with HeLa [1] is “Dose-dependent effect”. The inhibition entry in the assay on HeLa [2] is “Active”.

Take `CCOC(=O)c1cccc(CNc2ccc(N(C)C(=O)Nc3ccccc3)cc2)c1`: the inhibition result with HeLa [1] was “Dose-dependent effect”. The inhibition entry (in assay [3]; in the assay filed under Bos taurus [4]; in the assay filed under Bos taurus [5]; in assay [6]) was “inactive” in each case.
